Laboratory results as given in paper PMC8789071 (2022).

Tested on: human telomeric G-quadruplex (139-nt GQ strand) in DNA origami nanobowl (DNA, G4) TTACCTTTCCCCTCTGGCAAAACTATTCCGGTAAACTTAGGGTTAGGGTTAGGGTTAGGGTTATTTTTTTTATTTCTTCAGGCTTAACCATGCATTCCGATTGCAGCTTGCATCCATTGCATCGCTTGAATTGTCCAGC
Test: optical tweezers mechanical unfolding, force populations
Settings: 100 mM KCl, 10 mM MgCl2; 20 mM Tris pH 7.8, 1 mM EDTA; free PDS 20-500 nM; bound populations outside and inside nanobowl rise

With `NCCOc1cc(C(=O)Nc2cc(OCCN)c3ccccc3n2)nc(C(=O)Nc2cc(OCCN)c3ccccc3n2)c1` the binding was “yes”.
